The record followed here is ChEMBL document CHEMBL2380205, “Discovery of a new class of natural product-inspired quinazolinone hybrid as potent antileishmanial agents” (J Med Chem, 2013).

In series [1] the test system is Leishmania donovani. In words: Antileishmanial activity against amastigotes of Leishmania donovani MHOM/IN/60/Dd8 infected in golden hamster assessed as amastigote count at 40 mg/kg/day, ip administered for 5 days measured on day 7 of post last dose by Giemsa staining. In kind it is functional, organism-based.
The subject of another series is J774.A1. In words: (§1) Selectivity index, ratio of CC50 for mouse J774A1 cells to IC50 for amastigotes of Leishmania donovani MHOM/IN/60/Dd8 infected in mouse J-774A.1 cells. In kind it is functional.
For series [2], the system named is Leishmania donovani. The series can be described thus: Antileishmanial activity against promastigotes of Leishmania donovani MHOM/IN/60/Dd8 after 72 hrs by luciferase reporter gene assay. In kind it is functional, organism-based. The following applies: MHOM/IN/60/Dd8, 72 h.
The subject of series [3] is Leishmania donovani. In words: Antileishmanial activity against amastigotes of Leishmania donovani MHOM/IN/60/Dd8 infected in golden hamster assessed as amastigote count at 50 mg/kg/day, ip administered for 5 days measured on day 7 of post last dose by Giemsa staining. In kind it is functional. The following applies: MHOM/IN/60/Dd8, ip, route intraperitoneal.
A short description of series [4]: Lipophilicity, log P of the compound. The note with it: octanol/water. Type of series: physicochemical.
The nature of series [5]: as §1. Type of series: functional, J774.A1.
The nature of series [6]: Cytotoxicity against african green monkey Vero cells after 72 hrs by MTT assay. In kind it is cell-based. The note with it: chlorocebus sabaeus.
A short description of series [7]: Cytotoxicity against mouse J774A1 cells after 72 hrs by MTT assay. In kind it is cell-based, J774.A1.
The test system of series [8] is Leishmania donovani. The series can be described thus: Antileishmanial activity against amastigotes of Leishmania donovani MHOM/IN/60/Dd8 infected in mouse J-774A.1 cells after 72 hrs by luciferase reporter gene assay. Type of series: functional, organism-based. The following applies: MHOM/IN/60/Dd8, J774.A1, 72 h.
Series [9] is described as follows: Oral bioavailability in Sprague-Dawley rat at 10 mg/kg. In kind it is ADME, organism-based. The following applies: in vivo.
Series [10] can be described thus: Clearance in Sprague-Dawley rat at 10 mg/kg, iv. In kind it is ADME, organism-based. Set-up: dose 10 mg/kg, route intravenous. The note with it: in vivo.
Series [11] has as its system Rattus norvegicus. The series can be described thus: Clearance in Sprague-Dawley rat at 10 mg/kg, po. Type of series: ADME, organism-based. Set-up: dose 10 mg/kg, route oral. The following applies: in vivo.
Series [12] in a line: Volume of distribution at steady state in Sprague-Dawley rat at 10 mg/kg, iv. Type of series: ADME, organism-based. Set-up: dose 10 mg/kg, route intravenous. The note with it: in vivo, read-out: Vdss.
The nature of series [13]: Mean residence time in Sprague-Dawley rat at 10 mg/kg, iv. Type of series: ADME, organism-based. The arrangement: dose 10 mg/kg, route intravenous. The following applies: in vivo.
The nature of series [14]: Mean residence time in Sprague-Dawley rat at 10 mg/kg, po. In kind it is ADME, organism-based. The arrangement: dose 10 mg/kg, route oral. The note with it: in vivo.
Series [15] is described as follows: Elimination half life in Sprague-Dawley rat at 10 mg/kg, iv. In kind it is ADME, organism-based. Set-up: dose 10 mg/kg, route intravenous. The note with it: in vivo, read-out: beta t1/2 (converted).
The nature of series [16]: AUC (0 to t) in Sprague-Dawley rat at 10 mg/kg, iv. In kind it is ADME, organism-based. The arrangement: dose 10 mg/kg, route intravenous. The note with it: plasma.
Series [17] has as its system Rattus norvegicus. In words: AUC (0 to t) in Sprague-Dawley rat at 10 mg/kg, po. The arrangement: dose 10 mg/kg, route oral. Type of series: ADME, organism-based, Plasma. The following applies: in vivo.
Series [18] in a line: Tmax in Sprague-Dawley rat at 10 […], iv. In kind it is ADME, organism-based. The following applies: in vivo.
Series [19] can be described thus: Cmax in Sprague-Dawley rat at 10 mg/kg, iv. In kind it is ADME, organism-based. The note with it: in vivo. The arrangement: dose 10 mg/kg, route intravenous.
The next series has as its target Albumin (Bos taurus, UniProt P02769). The series can be described thus: Binding affinity to bovine serum albumin by fluorescence spectrophotometry. The note with it: cattle, isolated protein. Type of series: ADME.
For series [20], the system named is Leishmania. In words: Antileishmanial activity against amastigotes of Leishmania infected mouse J774A1 cells assessed as induction of nitric oxide generation after 24 hrs by ELISA (reference value: 4.65 uM). Type of series: functional, J774.A1.
Series [21] has as its system Leishmania. In words: Antileishmanial activity against amastigotes of Leishmania infected in mouse J-774A.1 cells assessed as decrease in […] production at IC50 after 24 hrs by ELISA relative to control. In kind it is functional, J774.A1.
Series [22] deals with Leishmania. The series can be described thus: Antileishmanial activity against amastigotes of Leishmania infected in mouse J-774A.1 cells assessed as decrease in IL-10 production at IC50 after 24 hrs by ELISA relative to control. In kind it is functional, J774.A1.
The test system of series [23] is Leishmania. The series can be described thus: Antileishmanial activity against amastigotes of Leishmania infected in mouse J-774A.1 cells assessed as increase in TNF-alpha production at IC50 after 24 hrs by ELISA relative to control. In kind it is functional, J774.A1.
Series [24] deals with Leishmania. In words: Antileishmanial activity against amastigotes of Leishmania infected in mouse J-774A.1 cells assessed as increase in IL-12 production at IC50 after 24 hrs by ELISA relative to control. Type of series: functional, J774.A1.

A value given as a limit tells only on which side of the number the result lay.

Albumin, sequence (P02769 whole entry): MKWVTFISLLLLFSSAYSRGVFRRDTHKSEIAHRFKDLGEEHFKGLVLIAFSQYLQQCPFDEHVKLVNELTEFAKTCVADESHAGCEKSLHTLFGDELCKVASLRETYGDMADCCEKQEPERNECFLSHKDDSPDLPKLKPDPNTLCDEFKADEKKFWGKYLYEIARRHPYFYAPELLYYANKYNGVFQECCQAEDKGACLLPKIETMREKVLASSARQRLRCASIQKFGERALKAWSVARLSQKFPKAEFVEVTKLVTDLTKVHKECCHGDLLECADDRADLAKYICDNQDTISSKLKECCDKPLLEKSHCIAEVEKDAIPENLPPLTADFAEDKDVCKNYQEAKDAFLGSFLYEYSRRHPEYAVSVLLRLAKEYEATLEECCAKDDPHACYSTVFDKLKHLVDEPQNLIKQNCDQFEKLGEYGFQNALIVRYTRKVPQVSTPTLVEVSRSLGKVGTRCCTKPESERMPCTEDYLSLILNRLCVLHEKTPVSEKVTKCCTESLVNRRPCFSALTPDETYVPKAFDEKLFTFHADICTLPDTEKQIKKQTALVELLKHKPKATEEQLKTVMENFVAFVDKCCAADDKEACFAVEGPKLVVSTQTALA

Sodium stibogluconate: in the series with Leishmania donovani [1], the inhibition stood at 86.9%. In addition, the Ratio CC50/IC50 in the series on J774.A1 is over 8.57.
For `CC1(c2ccc(Nc3nc(NCc4ccccc4)nc(NCc4ccccc4)n3)cc2)NC(=O)c2ccccc2N1` (stereo not given), the IC50 with Leishmania donovani [2] worked out at 6.38 µM; with Leishmania donovani [8], 6.72 µM. Besides, the inhibition in vivo at 50 mg/kg/day in the series with Leishmania donovani [3] stood at 44.8%. In series [4], this compound displayed a logP of 6.49. The “Ratio CC50/IC50” value in series [5] is listed as over 59.52. Besides, the figures for the half-maximal cytotoxic concentration (CC50) at 72 h in series [6] and in series [7] were 359 µM and over 400 µM, respectively.
In the case of `CC1(c2ccc(Nc3nc(N4CCc5ccccc5C4)nc(N4CCc5ccccc5C4)n3)cc2)NC(=O)c2ccccc2N1` (stereo not given), the values for the concentration for half-maximal inhibition (IC50) in the series on Leishmania donovani [2] and in the series with Leishmania donovani [8] were over 40 µM and 4.39 µM, respectively. In [9], this compound had a bioavailability of 2.94%. In addition, the clearance in series [10] is 5.5 mL/min/kg. In addition, the CL with Rattus norvegicus [11] worked out at 6 mL/min/kg. Besides, the Vd in [12] is 1.95 L/kg. Besides, the figures for the MRT in series [13] and in [14] were 5.88 h and 8.44 h, respectively. In addition, the half-life in series [15] is 12.8 h. Also, the exposure AUC(0-t) in [16] turned out to be 24300 ng·h/mL. The compound further yielded an AUCt in the series on Rattus norvegicus [17] of 716 ng·h/mL. In addition, in series [18], the time to peak (Tmax) came out at 4.8 min. In series [19], this compound showed a maximum concentration (Cmax) of 63.3 µg/mL. This compound registered a KSV at Albumin of 6 ×10⁴ L/mol. The same compound returned a Kq at Albumin of 6 ×10¹² L/mol/s. Besides, in the series with Leishmania donovani [3], the inhibition in vivo at 50 mg/kg/day came to 80.9%. In addition, the Activity with Leishmania [20] was 22.58 µM. Also, the “fold change (FC)” value was over 3 in the series on Leishmania [21], 5 in the series on Leishmania [22], 11 with Leishmania [23] and over 8 with Leishmania [24]. Moreover, in [4], the log partition coefficient (logP) was determined as 7.19. Also, the “Ratio CC50/IC50” value in [5] is on record as over 91.11. Further, the CC50 at 72 h in [6] and in series [7] was over 400 µM each time.
With `CCCCCNc1nc(NCCCCC)nc(Nc2ccc(C3(C)NC(=O)c4ccccc4N3)cc2)n1` (stereo not given), the IC50 in the series with Leishmania donovani [2] amounted to 7.46 µM; in the series on Leishmania donovani [8], 2.42 µM. The inhibition in vivo at 50 mg/kg/day with Leishmania donovani [3] was found to be 43%. In addition, the logP in series [4] came to 7.57. Also, in series [5], the “Ratio CC50/IC50” value is over 165.29. Besides, the CC50 at 72 h in [6] and in series [7] was over 400 µM throughout.
On to `CC(C)c1ccc(C(Nc2ccc(C3(C)NC(=O)c4ccccc4N3)cc2)c2nnnn2C(C)(C)C)cc1` (stereo not given), for which the IC50 in the series with Leishmania donovani [2] was 4.02 µM; in the series with Leishmania donovani [8], 7.76 µM. Also, in the series with Leishmania donovani [3], the inhibition in vivo at 50 mg/kg/day was determined as 54%. In series [4], this compound showed a logP of 6.03. In addition, in [5], the “Ratio CC50/IC50” value was over 51.54. For the same compound, the CC50 at 72 h in series [6] and in [7] was over 400 µM in each case.
For `Nc1nc(-c2ccc(Cl)cc2)cc(-c2ccc(C3NC(=O)c4ccccc4N3)cc2)n1` (stereo not given), the figures for the half-inhibitory concentration (IC50) in the series on Leishmania donovani [2] and in the series with Leishmania donovani [8] were 3.07 µM and 1.89 µM, respectively. In addition, the inhibition in vivo at 50 mg/kg/day in the series on Leishmania donovani [3] came to 35.8%. In [4], this compound registered a log partition coefficient (logP) of 4.49. In series [5], the “Ratio CC50/IC50” value stood at 43.46. For the same compound, the CC50 at 72 h in series [6] is 323 µM; in [7] it was 82.2 µM.
